The record followed here is ChEMBL document CHEMBL5653615 (J Biol Chem, 2013).

Usually inhibition stands for the drop in the measured response relative to a control, in per cent.

The target of test [1] is T1, Serine/threonine-protein kinase TBK1 (Homo sapiens) (UniProt Q9UHD2).
T1 sequence (whole entry): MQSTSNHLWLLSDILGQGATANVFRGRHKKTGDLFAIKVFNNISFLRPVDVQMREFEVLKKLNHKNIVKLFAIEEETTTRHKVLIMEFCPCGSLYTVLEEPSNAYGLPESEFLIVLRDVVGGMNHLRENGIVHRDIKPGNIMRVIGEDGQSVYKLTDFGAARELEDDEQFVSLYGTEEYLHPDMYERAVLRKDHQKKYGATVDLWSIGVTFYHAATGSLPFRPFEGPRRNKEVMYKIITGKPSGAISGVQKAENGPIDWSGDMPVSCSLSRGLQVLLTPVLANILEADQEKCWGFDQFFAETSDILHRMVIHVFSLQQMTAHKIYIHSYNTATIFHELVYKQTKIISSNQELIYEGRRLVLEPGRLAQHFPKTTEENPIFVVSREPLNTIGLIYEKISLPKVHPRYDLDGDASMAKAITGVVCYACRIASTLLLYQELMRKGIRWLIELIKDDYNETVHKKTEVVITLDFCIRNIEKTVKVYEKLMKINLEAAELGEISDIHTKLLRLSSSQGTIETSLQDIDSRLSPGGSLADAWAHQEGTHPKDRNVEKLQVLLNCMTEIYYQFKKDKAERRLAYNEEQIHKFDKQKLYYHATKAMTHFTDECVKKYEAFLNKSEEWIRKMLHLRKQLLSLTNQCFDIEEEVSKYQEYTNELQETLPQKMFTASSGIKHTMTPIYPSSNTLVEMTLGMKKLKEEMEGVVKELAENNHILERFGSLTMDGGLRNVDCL
Put plainly: Inhibition of human TBK1 at 18.6 nM by HotSpot assay relative to control.

Test [2] has as its target Tyrosine-protein kinase Fer (Homo sapiens) (UniProt P16591). Put plainly: Inhibition of human FER at 18.6 nM by HotSpot assay relative to control.
The target in test [3] is T2, Ephrin type-B receptor 3 (Homo sapiens) (UniProt P54753).
T2 sequence (whole entry): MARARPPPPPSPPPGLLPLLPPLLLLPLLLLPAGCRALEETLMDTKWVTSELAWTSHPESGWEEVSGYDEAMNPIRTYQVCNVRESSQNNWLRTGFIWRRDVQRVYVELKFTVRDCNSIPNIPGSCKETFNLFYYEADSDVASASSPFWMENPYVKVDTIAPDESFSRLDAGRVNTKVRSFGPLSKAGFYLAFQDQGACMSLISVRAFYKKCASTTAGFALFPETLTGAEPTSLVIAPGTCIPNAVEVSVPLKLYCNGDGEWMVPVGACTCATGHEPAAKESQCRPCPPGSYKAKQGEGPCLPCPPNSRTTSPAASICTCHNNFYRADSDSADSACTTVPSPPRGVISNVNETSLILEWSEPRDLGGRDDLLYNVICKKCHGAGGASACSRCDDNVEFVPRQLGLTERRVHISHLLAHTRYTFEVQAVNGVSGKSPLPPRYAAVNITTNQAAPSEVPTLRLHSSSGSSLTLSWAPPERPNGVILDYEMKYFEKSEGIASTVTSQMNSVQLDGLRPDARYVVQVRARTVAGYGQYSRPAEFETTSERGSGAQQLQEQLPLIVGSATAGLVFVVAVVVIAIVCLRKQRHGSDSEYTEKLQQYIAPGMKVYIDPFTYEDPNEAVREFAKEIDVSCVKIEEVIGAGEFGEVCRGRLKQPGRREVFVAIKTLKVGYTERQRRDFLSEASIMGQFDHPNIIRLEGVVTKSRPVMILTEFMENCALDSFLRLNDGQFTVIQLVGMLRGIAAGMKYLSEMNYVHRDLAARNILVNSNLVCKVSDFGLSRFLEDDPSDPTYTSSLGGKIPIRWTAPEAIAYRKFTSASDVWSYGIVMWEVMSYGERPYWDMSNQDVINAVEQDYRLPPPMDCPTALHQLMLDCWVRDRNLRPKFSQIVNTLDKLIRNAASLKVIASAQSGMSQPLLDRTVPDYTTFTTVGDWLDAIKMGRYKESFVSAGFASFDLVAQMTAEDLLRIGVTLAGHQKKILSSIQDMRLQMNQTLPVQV
Put plainly: Inhibition of human EPHB3 at 18.6 nM by HotSpot assay relative to control.

The target in test [4] is Activated CDC42 kinase 1 (Homo sapiens) (UniProt Q07912). Kind of test: Inhibition of human ACK1 at 1.82 nM by HotSpot assay relative to control.
Test [5] concerns the target T3, Serine/threonine-protein kinase ULK1 (Homo sapiens) (UniProt O75385).
T3 sequence (whole entry): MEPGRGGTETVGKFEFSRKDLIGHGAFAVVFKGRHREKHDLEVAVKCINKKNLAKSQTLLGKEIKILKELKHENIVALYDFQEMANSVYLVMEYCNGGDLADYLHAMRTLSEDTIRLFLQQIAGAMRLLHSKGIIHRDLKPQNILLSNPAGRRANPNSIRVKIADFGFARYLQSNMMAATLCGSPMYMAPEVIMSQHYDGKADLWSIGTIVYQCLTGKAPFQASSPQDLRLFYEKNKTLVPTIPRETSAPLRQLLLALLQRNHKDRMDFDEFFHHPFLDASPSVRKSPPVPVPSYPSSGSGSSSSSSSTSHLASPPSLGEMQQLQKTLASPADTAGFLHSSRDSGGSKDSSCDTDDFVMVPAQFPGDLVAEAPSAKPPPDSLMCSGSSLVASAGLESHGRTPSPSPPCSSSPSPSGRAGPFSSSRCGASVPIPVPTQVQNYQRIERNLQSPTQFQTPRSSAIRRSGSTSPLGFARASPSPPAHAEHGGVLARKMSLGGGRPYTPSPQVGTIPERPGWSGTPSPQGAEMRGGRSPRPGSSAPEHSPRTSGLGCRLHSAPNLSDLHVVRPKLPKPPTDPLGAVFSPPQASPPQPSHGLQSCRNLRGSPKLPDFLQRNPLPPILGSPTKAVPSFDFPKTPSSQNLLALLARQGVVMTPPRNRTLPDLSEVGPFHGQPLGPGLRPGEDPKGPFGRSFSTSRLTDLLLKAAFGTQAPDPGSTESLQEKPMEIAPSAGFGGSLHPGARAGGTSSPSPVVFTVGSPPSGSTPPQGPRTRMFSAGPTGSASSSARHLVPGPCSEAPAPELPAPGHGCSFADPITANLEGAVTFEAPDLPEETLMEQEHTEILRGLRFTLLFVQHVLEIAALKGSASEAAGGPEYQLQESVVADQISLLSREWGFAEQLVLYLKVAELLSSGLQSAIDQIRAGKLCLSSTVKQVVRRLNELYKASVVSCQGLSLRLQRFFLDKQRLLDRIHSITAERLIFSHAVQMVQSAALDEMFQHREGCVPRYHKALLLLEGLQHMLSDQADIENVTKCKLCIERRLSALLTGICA
Kind of test: Inhibition of human ULK1 at 1.82 nM by HotSpot assay relative to control.

Sequence of Activated CDC42 kinase 1 (Homo sapiens) (Q07912 whole entry, looked up): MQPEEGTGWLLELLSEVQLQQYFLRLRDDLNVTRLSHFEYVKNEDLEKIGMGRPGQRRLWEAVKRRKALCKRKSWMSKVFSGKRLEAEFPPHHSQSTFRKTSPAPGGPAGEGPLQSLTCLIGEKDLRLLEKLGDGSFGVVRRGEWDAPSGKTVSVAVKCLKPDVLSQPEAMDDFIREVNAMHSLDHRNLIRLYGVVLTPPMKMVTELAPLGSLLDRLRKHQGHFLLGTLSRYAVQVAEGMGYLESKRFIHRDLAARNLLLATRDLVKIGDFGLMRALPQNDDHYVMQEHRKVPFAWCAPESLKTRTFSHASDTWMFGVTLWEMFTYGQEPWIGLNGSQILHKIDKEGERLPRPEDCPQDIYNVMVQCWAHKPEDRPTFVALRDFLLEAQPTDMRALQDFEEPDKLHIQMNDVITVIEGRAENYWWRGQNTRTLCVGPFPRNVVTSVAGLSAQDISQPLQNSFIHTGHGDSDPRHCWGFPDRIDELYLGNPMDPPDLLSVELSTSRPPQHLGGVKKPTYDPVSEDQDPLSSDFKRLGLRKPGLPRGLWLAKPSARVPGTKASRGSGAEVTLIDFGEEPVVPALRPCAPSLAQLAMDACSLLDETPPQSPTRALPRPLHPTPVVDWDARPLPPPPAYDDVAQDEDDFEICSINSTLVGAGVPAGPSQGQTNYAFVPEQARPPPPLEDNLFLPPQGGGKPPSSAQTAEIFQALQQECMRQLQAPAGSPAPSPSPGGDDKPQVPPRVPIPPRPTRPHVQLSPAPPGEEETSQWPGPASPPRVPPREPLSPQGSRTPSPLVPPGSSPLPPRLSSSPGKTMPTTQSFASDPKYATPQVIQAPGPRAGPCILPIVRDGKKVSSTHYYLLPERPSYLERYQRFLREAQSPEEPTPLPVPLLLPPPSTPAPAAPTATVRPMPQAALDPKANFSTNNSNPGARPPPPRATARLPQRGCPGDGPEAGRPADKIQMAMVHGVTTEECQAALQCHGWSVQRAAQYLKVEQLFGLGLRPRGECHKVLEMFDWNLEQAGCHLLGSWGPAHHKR
Sequence of Tyrosine-protein kinase Fer (Homo sapiens) (P16591 whole entry, looked up): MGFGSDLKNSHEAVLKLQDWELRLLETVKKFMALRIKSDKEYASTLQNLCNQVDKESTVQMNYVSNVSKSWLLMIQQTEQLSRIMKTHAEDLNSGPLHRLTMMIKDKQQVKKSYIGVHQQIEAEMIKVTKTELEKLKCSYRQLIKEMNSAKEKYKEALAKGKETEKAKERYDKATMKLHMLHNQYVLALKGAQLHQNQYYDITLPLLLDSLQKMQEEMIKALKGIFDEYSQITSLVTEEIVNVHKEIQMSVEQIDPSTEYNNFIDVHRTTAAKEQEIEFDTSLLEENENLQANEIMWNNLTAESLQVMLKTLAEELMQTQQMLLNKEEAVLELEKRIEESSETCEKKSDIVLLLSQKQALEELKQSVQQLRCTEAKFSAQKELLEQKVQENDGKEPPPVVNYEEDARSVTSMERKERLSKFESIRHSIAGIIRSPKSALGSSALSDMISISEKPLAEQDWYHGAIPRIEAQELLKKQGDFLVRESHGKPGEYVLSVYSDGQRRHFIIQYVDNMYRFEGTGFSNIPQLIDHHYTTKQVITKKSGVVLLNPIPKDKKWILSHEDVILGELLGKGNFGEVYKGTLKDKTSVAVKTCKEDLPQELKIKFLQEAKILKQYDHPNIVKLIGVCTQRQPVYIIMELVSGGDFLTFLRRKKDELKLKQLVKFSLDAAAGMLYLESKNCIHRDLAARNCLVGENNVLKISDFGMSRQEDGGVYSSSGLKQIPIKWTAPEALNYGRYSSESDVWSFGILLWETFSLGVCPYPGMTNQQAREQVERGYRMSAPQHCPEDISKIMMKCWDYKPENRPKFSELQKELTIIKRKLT

Turning to `C[C@]1(O)C[C@@H](c2nc(-c3ccc4ccc(-c5ccccc5)nc4c3)c3c(N)nccn32)C1`, the results for the inhibition in test [1], in test [2] and in test [3] were 5.59%, -4.79% and -2.53%, respectively.

Turning to `C[C@@]1(C(=O)Nc2ccc(F)nc2)CCCN1c1nc(Nc2cc(C3CC3)n[nH]2)c2cccn2n1`, the inhibition stood at 3.55% in test [4] and 0.76% in test [5].
